“Also recorded” adds a separate entry of the source.
Test system: normal human adult articular cartilage explants
Assay: Type II collagen cleavage by collagenase (COL2-3/4C) in human articular cartilage explant culture
Assay type: cell-based
Description: Human femoral chondylar cartilages were obtained at autopsy within 18 hours of death from adult persons with no known history of arthritis and no macroscopic signs of articular degeneration. None of the persons had diabetes or had received chemotherapy prior to autopsy. Adult bovine articular cartilage was obtained from adults/bovine steers and cows from metacarpalphalangeal joints obtained at the abbatoir immediately after slaughter. All cartilage specimens were removed immediately to the laboratory under sterile conditions.
The cartilages were prepared as previously described (Dahlberg, L. et al. (2000) supra. In brief, the cartilage samples were washed three times with basal culture medium containing Dulbecco's modified Eagle's medium (DMEM; Gibco BRL, Life Technologies, Grand Island, N.Y.) with 20 mM HEAPS buffer (pH 7.4) (Gibco BRL), 45 mM NaHCO3, 100 units/ml penicillin, 100 μg/ml streptomycin and 150 μg/ml gentamycin sulphate (Medium A). Full-depth cartilage slices from a single area, around 20 mm×20 mm were cut vertical to the articular surface and then into cubes of approximately 2 mm×2 mm (5-7 cubes were randomly obtained and wet weights about 50-70 mg/well determined).
The cartilage was assigned to 48 well plate (ca 40 mg/well) and kept in Medium A supplemented with 50 μg/ml ascorbic acid, 0.1 mg/bovine serum albumin, 50 μg/ml insulin, 5.0 μg/ml and 5.0 μg/ml sodium DMEM alone at 37° C. in 95% air/5% CO2. The cartilage was precultured for 2 days and medium was changed at day 0. Thereafter medium (as described in pellet cultures) was replaced every four days. Various CNBr fragments and/or synthetic peptides were freshly added from day 0 at each medium change. Thereafter, cartilage explants and conditioned media were harvested and stored at −20° C.
The cell pellets and cartilage explant cultured for various times were digested for the extraction of collagenase-generated neoepitope COL2-3/4Cshort (Billinghurst, R. C. et al., (1997) supra) and denatured type II collagen epitope COL2-3/4m and total type II collagen (Hollander, A. P. et al. (1994a) supra), as previously described: Briefly, the harvested pellets were incubated overnight with 1.0 mg/ml α-chymotrypsin at 37° C. to cleave and solubilize denatured collagen leaving the above neoepitope and epitope intact. After inhibition of α-chymotrypsin activity with N-tosyl-L-phenelalanine-chloromethyl ketone (Sigma), the samples were centrifuged and the supernatants were removed and boiled for 10 min. The COL2-3/4Cshort epitope (hereafter referred to as COL2-3/4Cshort) generated by cleavage of type II collagen by collagenase (Billinghurst, R. C. et al. (1997) supra) and intrachain epitope (COL2-3/4m) exposed in denatured type II collagen (Hollander, A. P. et al. (1994a) supra) were measured in α-chymotrypsin extracts by immunoassay. The COL2-3/4Cshort epitope is detected in an ELISA assay using a rabbit antibody to the carboxyterminal cleavage neoepitope on the TCA piece generated by primary collagenase cleavage of type II collagen. The release of the COL2-3/4C epitope into media was also measured by immunoassay. Total contents in tissue/cells and media was recorded for COL2-3/^4Cshort epitope. The COL2-3/4m epitope was recorded in cells and tissue where it was concentrated. The remaining residues of pellets and explants were digested overnight with 1.0 mg/ml proteinase K at 56° C. to extract the remaining intact type II collagen and then boiled for 10 min to denature the enzyme. Total type II collagen content in the pellets and explant was determined from the collective amount of COL2-3/4m in both the α-chymotrypsin and proteinase K digests.

## ERGPPGPQGARGFPGTPGLPGVK [CB12-II]
1 μM (one donor), 5 μM and 10 μM (both donors), over 16 days
  induction of cleavage of type II collagen, dose dependence: dose dependent manner; also recorded: Activity was seen
10 μM, day 12
  COL2-3/4 epitope production in cartilage and medium: significant progressive increase
Hydroxylation study, day 16
  type II collagen cleavage by collagenase in presence of peptide: clearly enhanced

From patent US20040122209A1, “Products for regulating the degradation of collagen and methods for identifying same” (Shriners Hospital For Children, priority 2002, published 2004)
